Experimental data from paper PMC3705751 (Evidence-based Complementary and Alternative Medicine : eCAM, 2013).
Where two headings read alike, the source gives them in different places.

How the values were obtained:
Cytotoxic assay (MTT) = conditions: dog, MDCK cells
[1] = tested on: seasonal 2007 H1N1 influenza A virus; assay: microbe, parasite or virus in culture; assay type: cell-based; conditions: read-out: Plaque inhibition IC50 values, Seasonal 2007 H1N1
[2] = target: NA of PR8 H1N1 influenza A virus (Influenza A virus, UniProt P03468); assay: NA enzymatic activity inhibition, fluorometric MUNANA assay; assay type: biochemical, Influenza A/Puerto Rico/8/34 (H1N1)
Sequence of NA of PR8 H1N1 influenza A virus (P03468 whole entry): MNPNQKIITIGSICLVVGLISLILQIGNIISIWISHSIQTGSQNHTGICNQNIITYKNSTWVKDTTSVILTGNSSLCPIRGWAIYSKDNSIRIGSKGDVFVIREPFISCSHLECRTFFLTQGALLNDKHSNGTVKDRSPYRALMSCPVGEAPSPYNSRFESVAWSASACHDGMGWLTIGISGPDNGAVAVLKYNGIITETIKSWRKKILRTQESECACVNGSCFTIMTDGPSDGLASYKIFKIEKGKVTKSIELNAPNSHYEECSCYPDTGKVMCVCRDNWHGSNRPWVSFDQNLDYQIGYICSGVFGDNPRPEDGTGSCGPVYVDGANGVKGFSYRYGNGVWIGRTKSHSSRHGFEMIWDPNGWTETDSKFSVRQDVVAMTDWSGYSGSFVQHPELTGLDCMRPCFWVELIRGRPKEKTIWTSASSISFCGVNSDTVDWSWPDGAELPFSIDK
Description: Pandemic influenza A/Taiwan/CMUH/2009 (H1N1) (pandemic 2009 H1N1 virus), seasonal influenza A/Taiwan//CMUH/2007 (H1N1), 2009 (H1N1), and 2009 (H3N2) (seasonal 2007 H1N1, 2009 H1N1, and 2009 H3N2 influenza A viruses) were isolated in the clinical virology laboratory of China Medical University Hospital, Taiwan. Influenza A/Puerto Rico/8/34 (H1N1) (PR8 H1N1 virus) was kindly provided by Dr. Wei-Li Hsu (Institute of Microbiology and Public Health, National Chung-Hsing University). HA subtype of all influenza A viruses used was confirmed by RT-PCR or real-time RT-PCR with specific primers (see Supplementary Table 1 in the Supplementary Material available online at http://dx.doi.org/10.1155/2013/750803).
Fluorometric substrate 2′-(4-methylumbelliferyl)-α-D-N-acetylneuraminic acid (MUNANA; Sigma) was used to determine NA activity as described in a prior report. To determine NA activity of pandemic 2009 H1N1 and seasonal 2007 H1N1 viruses, serial 10-fold dilution of viruses (10^6 PFU/mL) was added to the wells of a 96-well plate, mixed with MUNANA solution at final concentration of 300 μM, and then incubated for 1 h at 37°C. Relative NA enzymatic activity was determined as the fluorescent intensity at a 360 nm excitation and a 460 nm emission wavelength (Multidetection Fluorescence-Luminescence Microplate Reader). […] Concentration of each extract or flavonoid showing 50% inhibitory effect (IC50) compared to the control with no inhibitor was determined by computer program (provided by John Spouge, National Institutes of Health).

[3] = tested on: pandemic 2009 H1N1 influenza A virus; assay: Plaque inhibition assay in MDCK cells; assay type: cell-based, Pandemic influenza A/Taiwan/CMUH/2009 (H1N1); conditions: 72 h, read-out: Plaque inhibition IC50 values, Pandemic 2009 H1N1
in vitro = conditions: dog
[4] = flavonoids, MUNANA substrate, read-out: NA inhibition IC50 values, PR8 H1N1

Compound | CC50 at 48 h (Cytotoxic assay (MTT)) [µM] | IC50 ([1]; flavonoids, MDCK cells, 3 days) [µM] | IC50 [2] [µM] | IC50 [3] [µM] | IC50 ([1]; Influenza A virus, MDCK, 72 h) [µM] | CC50 (in vitro) [µM] | IC50 [2, 4] [µM] | CC50 MDCK cells (MDCK cells) [µg/mL]
O=c1cc(-c2ccc(O)cc2)oc2cc(O)cc(O)c12 [Apigenin] | 218.34 ± 0.11 | 119.61 ± 0.032 | 81.3 | 94.16 ± 0.047 | – | – | – | –
O=c1cc(-c2ccccc2)oc2cc(O)c(O)c(O)c12 [Baicalein] | 0.045 ± 0.088 | – | 0.181 | 0.02 | 0.018 | – | – | –
O=C(O)[C@H]1O[C@@H](Oc2cc3oc(-c4ccccc4)cc(=O)c3c(O)c2O)[C@H](O)[C@@H](O)[C@@H]1O [Baicalin] | – | – | – | > 0.01 | > 0.01 | 0.015 | 2.75 | –
O=c1cc(-c2ccccc2)oc2cc(O)cc(O)c12 [Chrysin] | – | – | – | > 200 | > 200 | 266.66 ± 0.077 | 132 | –
Chloroform | – | – | – | – | – | – | – | 829.77 ± 0.009
MeOH | – | – | – | – | – | – | – | 923.12 ± 0.017
